The test system of assay [1] is MC38 mouse colon cancer transplanted tumor model. As to the kind of experiment: In vivo pharmacodynamic study on MC38 mouse colon cancer transplanted tumor model. Set-up: species or system C57BL/6 mice. To be noted: compound 6 hydrochloride 1.5 mg/kg oral once a day, PD-1 mAb 5 mg/kg i.p. twice a week. The method, then: The purpose of this experiment was to evaluate the in vivo efficacy of the compounds of the present disclosure on MC38 mouse colon cancer transplanted tumor model.
Name: MC38 (Mouse Colon Cancer Cell)
Cell culture: 1640 medium containing 10% fetal bovine serum was used as culture medium, and the culture condition was 37° C., 5% carbon dioxide. The passage ratio was 1:2 to 1:3, the passage was performed 2-3 times per week.
0.1 mL (2×10^5 cells) of cells were subcutaneously inoculated into the right back of each mouse. On the same day, the animals were randomly grouped according to their body weight. […]
The experimental indicator is to investigate whether the tumor growth was inhibited, delayed or cured. Tumor diameters were measured with a vernier caliper twice a week. The tumor volume was calculated by the formula: V=0.5a×b^2, a and b respectively represent the long and short diameters of the tumor.
The efficacy of the compound was evaluated by relative tumor growth rate T/C (%). […] The relative tumor volume (RTV) was calculated based on the results of tumor measurement, the calculation formula was: RTV=Vt/V0, wherein V0 was the average tumor volume measured at the time of grouping administration (i.e., do), Vt is the average tumor volume measured at a single time, TRTV and CRTV were calculated from the data on the same day.

A further assay addresses human LSD1 (Homo sapiens, UniProt O60341). As to the kind of experiment: In vitro enzyme activity screening against LSD1 (HRP/Amplex Red fluorescence coupling enzyme method). The settings on record: human LSD1, histone H3K4me peptide substrate 20 μM. The class given is biochemical. As to the method: The purpose of this test was to detect the in vitro inhibitory activity of the compounds against LSD1. The enzyme used in this test was human LSD1, the standard substrate was histone H3K4me peptide (20 μM), the fluorescence coupling enzyme method was used to determine the activity of the compound by combining horseradish peroxidase (HRP) and fluorescent reagent Amplex Red to detect the H2O2 generation as a result of the reaction of LSD1. Compounds were tested in 10-dose IC50 mode with a 3-fold serial dilution starting at 10 μM. The enzyme and […] to start the reaction. Fluorescence detector: Envision, excitation wavelength: Ex/Em=530/590 […]

In assay [2] the test system is human small cell lung cancer NCI-H1417 xenograft tumor model. As to the kind of experiment: In vivo pharmacodynamic study on NCI-H1417 subcutaneous xenograft tumor in CB-17 SCID mice. The settings on record: compound 6 hydrochloride 1.5 mg/kg oral once a day, cisplatin 1 mg/kg i.p. twice a week. The method, then:
The purpose of the experiment was to evaluate the in vivo efficacy of the compounds of the present disclosure on subcutaneous xenograft tumor of human small cell lung cancer NCI-H1417 cells in a CB-17 SCID mouse model.
Human small cell lung cancer NCI-H1417 cells (ATCC) were cultured in vitro in a single layer, the culture conditions were RPMI-1640 culture medium supplemented with 10% fetal bovine serum, 37° C. 5% CO2. When the cell saturation reached 80%-90%, the cells were collected, counted, and inoculated.
0.2 mL of 10×10^6 NCI-H1417 cells were subcutaneously inoculated into the right back of each mouse (PBS: Matrigel=1:1). Group administration was started when the average volume reached 100-150 mm^3.
The vehicle used in the experiment was 0.5% methylcellulose solution, the preparation method was: 5 g of methylcellulose was weighed and dissolved in 800 mL ultrapure water, stirred evenly and made up to 1000 mL with ultrapure water. The test substance was dissolved in a solvent and prepared into a uniform solution of a certain concentration, and stored at 4° C.
Cisplatin (Cisplatin, manufacturer Qilu Pharmaceutical Co., Ltd., 10 mg/bottle freeze-dried powder for injection, lot number 7D011A8) was added to 10 mL 0.9% NaCl to make a 1 mg/mL mother liquor, and stored at room temperature and protected from light. The mother liquor was aliquoted into 0.63 mL and stored at room temperature. 5.67 mL 0.9% NaCl was added to one of the 0.63 mL mother liquor to make a 0.1 mg/mL solution.
The experimental indicator is to investigate whether tumor growth was inhibited, delayed, or cured. Tumor diameters were measured with a vernier caliper twice a week. The tumor volume was calculated by the calculation formula: V=0.5a×b^2, a and b respectively represent the long and short diameters of the tumor.
The anti-tumor effect of the compounds was evaluated by TGI (%). TGI (%) can reflect the tumor growth inhibition rate. TGI (%) calculation: TGI (%)=[1-(the average tumor volume at the end of the administration in a treatment group—the average tumor volume at the beginning of the administration in the treatment group)/(the average tumor volume at the end of the treatment of the solvent control group—the average tumor volume at the beginning of the treatment of the solvent control group)]×100%.

The subject of another assay is HL60 cells. Kind of assay: Antiproliferation activity on HL60 cells (CellTiter-Glo, 6 days). The format is cell-based. The settings on record: incubated for 6 days. An excerpt: Experimental purpose: to detect the antiproliferation activity of the compound to be tested on HL60 cells.
Experimental materials: RPMI-1640 culture medium, fetal bovine serum, penicillin/streptomycin antibiotics purchased from Wisent. CellTiter-Glo (chemiluminescent cell viability assay reagent) reagents purchased from Promega. HL60 cell line purchased from Nanjing Cobioer Co., Ltd. Nivo multi-label reader (PerkinElmer).
Experimental method: HL60 cells were planted in a white 384-well plate, 40 μL of cell suspension per well, 600 HL60 cells were contained therein. The cell plate was placed in a carbon dioxide incubator for overnight culture. The compounds to be tested were diluted 5-fold with a pipet until the 10th concentration, i.e., diluted from 2 mM to 1.024 nM, double duplicate well experiment was set. 78 μL of the culture medium was added to an intermediate plate, and then 2 μL per well of the serially diluted compounds were transferred to the corresponding positions on the intermediate plate, after mixing, 10 μL per well was transferred to the cell plate. The cell plate was incubated in a carbon dioxide incubator for 6 days. Another cell plate was prepared and the signal value on the day of dosing was read as the maximum value (Max value in the equation below) to participate in the data analysis. 20 μL of chemiluminescent cell viability assay reagent was added to each well of this cell plate, which was incubated at room temperature for 10 minutes to stabilize the luminescence signal. The multi-label reader was used for reading.
Data analysis: the equation (Sample-Min)/(Max-Min)*100% was used to convert the original data into the inhibition rate, the IC50 value can be obtained by curve fitting of four-parameters (“log(inhibitor) vs. response—Variable slope” mode in GraphPad Prism)).

Counter-ions that a name gives are not always drawn.

The values below come from patent US11649245B2, “Cyclopropylamine compound as LSD1 inhibitor and use thereof” (HELIOEAST PHARMACEUTICAL CO., LTD., priority 2018, dated 2023).

Usually T/C stands for the ratio of treated to control. For orientation: IC50 means the point on the concentration scale where inhibition reaches its midpoint. Read a low IC50 as inhibition by little substance. Broadly, the TGI is the reduction of tumour growth relative to the control group. Read a high TGI as much slowing of growth. In the case of `O=C(O)c1ccc(CN2CCC3(CC2)CC(N[C@@H]2C[C@H]2c2ccccc2)CO3)cc1` (stereo partly drawn) [Hydrochloride of the compound 6], the “Tumor volume (28th day)” value in assay [1] (C57BL/6 mice, 28th day after administration) is given as 1653 ± 893 mm^3. The molecule further came in with a T/C in assay [1] (relative tumor growth rate, 28th day) of 92%. In addition, the IC50 at human LSD1 worked out at 329 nM; with HL60 cells, 14.7 nM. Also, in assay [2] (CB-17 SCID mice), the “Tumor volume mean ± SEM (28th day)” value was found to be 187 ± 14 mm^3. This molecule also gave a TGI in assay [2] (tumor growth inhibition rate, 28th day) of 79.2%.
